Assay: Ipratropium climate stability tests (fine particle dose out of HandiHaler, Andersen impactor)
Conditions: Atrovent powder, 1 month at 25° C./60% Rh or 40° C./75% Rh, FIG. 4
Method: The powder was withdrawn from the originator's capsules and transferred to the capsules again after climate storage. The aerodynamic fine particle fraction (FPF) in the emitted dose from the HandiHaler® was measured using Andersen impactors according to European Pharmacopoeia (EP) and US Pharmacopoeia (USP). All analytical work were then performed according to standardized methods using a state of the art High Performance Liquid Chromatograph (HPLC) system.
Aerodynamic fine particle fraction of metered and delivered dose out of Handihaler® using Atrovent® formulation powder was analyzed. Transfer of powder from and back into originator capsules was performed in relative humidity below 10%. The test was performed with 4 kPa pressure drop over the HandiHaler® at room temperature and laboratory ambient conditions.
An in-use stability test was carried out of the aerodynamic fine particle fraction of metered and delivered dose out of Handihaler®. From the blister holding the Atrovent® capsules the powder was transferred to a medium moisture barrier container and sealed. The containers were put for 1 month in 25° C. and 60% Rh. The container holding the powder was then put in an exicator for 2 h before tests were performed. The inhaler test was performed with 4 kPa pressure drop over the HandiHaler® at room temperature and laboratory ambient conditions. […]

CC(C)[N+]1(C)[C@@H]2CC[C@H]1CC(OC(=O)C(CO)c1ccccc1)C2.[Br-] (stereo partly shown) [ipratropium bromide]
Moisture sensitivity (drop in fine particle dose, FPD): very moisture sensitive

Source: patent US20050287078A1, “Minimizing powder retention on surfaces” (MEDERIO AG, priority 2004, published 2005)
